Here are results for 32 molecules from US20260132126A1, “IMIDAZOLE DERIVATIVES” (SANWA KAGAKU KENKYUSHO CO., LTD., priority 2022, published 2026).

What is called Emax is the greatest response seen or fitted, relative to the assay's reference. What is called EC50 is the concentration needed to bring the measured effect to its halfway point. Low values mean an effect from little substance, high ones a need for much substance.

In this test the target is T1, human α1A adrenergic receptor (Homo sapiens, UniProt P35348).
T1 construct: host or cells: GeneBLAzer ADRA1A-NFAT-bla CHO-K1 cells
T1 sequence (P35348 1-466): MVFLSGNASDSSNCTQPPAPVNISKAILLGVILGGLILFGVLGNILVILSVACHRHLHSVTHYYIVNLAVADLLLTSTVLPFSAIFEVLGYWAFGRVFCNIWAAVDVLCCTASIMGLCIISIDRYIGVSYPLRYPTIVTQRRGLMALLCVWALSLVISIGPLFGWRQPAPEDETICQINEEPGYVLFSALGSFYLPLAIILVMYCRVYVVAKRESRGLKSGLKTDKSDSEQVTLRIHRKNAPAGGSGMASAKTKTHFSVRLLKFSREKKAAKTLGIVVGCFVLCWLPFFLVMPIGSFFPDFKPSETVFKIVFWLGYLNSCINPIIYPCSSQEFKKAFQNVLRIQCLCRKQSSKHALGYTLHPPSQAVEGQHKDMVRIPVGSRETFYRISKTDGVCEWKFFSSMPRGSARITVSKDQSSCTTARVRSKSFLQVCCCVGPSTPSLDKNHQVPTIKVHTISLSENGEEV
Kind of test: Ca2+ mobilization assay in human α1A adrenergic receptor-expressing cells. Format: cell-based. The conditions noted are these: for Emax at 10 µM: % activation at 10 μmol/L test compound, 100 μmol/L norepinephrine = 100%, well without test compound = 0%; for EC50: CHO-K1 cells expressing human α1A adrenergic receptor, Fluo-4 fluorescence, concentration giving 50% response of Emax, 4-parameter logistic regression. The method, then: CHO-K1 cells that highly express a human α1A adrenergic receptor (GeneBLAzer™ ADRA1A-NFAT-bla CHO-K1 Cells) were purchased from Thermo Fisher Scientific, Inc., and cultured according to the instructions.
The cultured human α1A adrenergic receptor-expressing cells were washed with D-PBS, then replaced with a loading buffer (2 μmol/L Fluo-4/AM, 1× PowerLoad, 2.5 mmol/L Probenecid-containing DMEM (high-glucose)) and incubated at 37° C. for 60 minutes in a 5% CO2 incubator. The cells were detached using 0.05% trypsin-EDTA solution, and suspended in an assay buffer ([…], 0.054 mol/L KCl, 1.8 mmol/L CaCl2), 1 mmol/L MgSO4, 0.11 mol/L glucose, 0.01 mol/L NaH2PO4·2H2O, […], pH 7.3) to be 500,000 cells/mL.
Test compounds were dissolved in dimethylsulfoxide, and diluted with an assay buffer containing 0.3% BSA. The final concentrations of the test compounds were set to fall within the range of 0.1 nmol/L to 10 μmol/L. As a reference compound, norepinephrine was set to have a final concentration within the range of 0.01 nmol/L to 100 μmol/L.
On a 384-well clear bottom black plate coated with poly-D-lysine (Corning Inc.), the above-described cell-suspended solution was dispersed in 40 μL each (20,000 cells/well) and allowed to stand for 10 minutes. The plate was transferred to a fluorescent imaging plate reader (FDSS7000, Hamamatsu Photonics K.K.), and measurements were started. After 1 minute from the start of the measurements, 20 μL of the test compound solutions or norepinephrine solution (total amount: 60 μL/well) was added to each well of the plate (final concentration: 0.1% BSA, 0.1% dimethylsulfoxide), and the temporal change in fluorescence intensity of Fluo-4 was further measured for 5 minutes (Ex 480 nm/Em 540 nm).
The normalized values (% activation) were used for subsequent analyses.
Emax values and EC50 values were calculated by creating a concentration-response curve of the test compounds using a 4-parameter logistic regression with XLFit, Emax value being defined as % activation of test compound at the concentration of 10 μmol/L, and EC50 value being defined as the concentration in which 50% response of the Emax values is shown.

`CC(Nc1ccccc1-c1cccnc1)c1c[nH]cn1` (single isomer, unassigned; (+)) [Example 36, (+)-N-(1-(1H-Imidazol-4-yl)ethyl)-2-(pyridin-3-yl)aniline] had a maximum response (Emax) at 10 µM of 86% and an EC50 of 3.7 nM.
On the same counts, the results for `COc1cccc(-c2ccccc2NC(C)c2c[nH]cn2)n1` (single isomer, unassigned; (+)) [Example 39, (+)-N-(1-(1H-Imidazol-4-yl)ethyl)-2-(6-methoxypyridin-2-yl)aniline] are 94% and 1.9 nM.
The corresponding values for `CC(Nc1ccccc1-c1cscn1)c1c[nH]cn1` (single isomer, unassigned; (+)) [Example 40, (+)-N-(1-(1H-Imidazol-4-yl)ethyl)-2-(thiazol-4-yl)aniline] are 111% and 0.6 nM.
On the same counts, the results for `CC(Oc1ccccc1-c1cccs1)c1c[nH]cn1` (single isomer, unassigned; (+)) [Example 79, (+)-4-(1-(2-(Thiophen-2-yl)phenoxy)ethyl)-1H-imidazole] are 108% and 4.5 nM.
In turn, `c1csc(-c2cscc2NCc2c[nH]cn2)c1` [Example 1] showed an Emax at 10 µM of 103% and a 50% effective concentration (EC50) of 0.8 nM.
Take `c1csc(-c2sccc2NCc2c[nH]cn2)c1` [Example 2, N-((1H-imidazol-4-yl)methyl)-[2,2′-bithiophen]-3-amine]: the Emax at 10 µM amounted to 105% and the concentration giving a half-maximal response (EC50) came to 0.9 nM.
The corresponding values for `c1cncc(-c2cscc2NCc2c[nH]cn2)c1` [Example 3, N-((1H-imidazol-4-yl)methyl)-4-(pyridin-3-yl)thiophen-3-amine] are 92% and 0.3 nM.
On the same counts, the results for `COc1ccncc1-c1cscc1NCc1c[nH]cn1` [Example 4, N-((1H-imidazol-4-yl)methyl)-4-(4-methoxypyridin-3-yl)thiophen-3-amine] are 93% and 0.6 nM.
On the same counts, the results for `COc1cncc(-c2cscc2NCc2c[nH]cn2)c1` [Example 5, N-((1H-imidazol-4-yl)methyl)-4-(5-methoxypyridin-3-yl)thiophen-3-amine] are 98% and 0.3 nM.
Turning to `Fc1cncc(-c2cscc2NCc2c[nH]cn2)c1` [Example 6, N-((1H-imidazol-4-yl)methyl)-4-(5-fluoropyridin-3-yl)thiophen-3-amine], the Emax at 10 µM was determined as 92% and a half-maximal response (EC50) required 1.1 nM.
The corresponding values for `c1cncc(-c2sccc2NCc2c[nH]cn2)c1` [Example 7, N-((1H-imidazol-4-yl)methyl)-2-(pyridin-3-yl)thiophen-3-amine] are 92% and 4.5 nM.
On the same counts, the results for `c1cc(-c2cscc2NCc2c[nH]cn2)[nH]n1` [Example 8, N-((1H-imidazol-4-yl)methyl)-4-(1H-pyrazol-5-yl)thiophen-3-amine] are 96% and 1.2 nM.
The corresponding values for `c1cncc(-c2ccccc2NCc2c[nH]cn2)c1` [Example 9, N-((1H-imidazol-4-yl)methyl)-2-(pyridin-3-yl)aniline] are 101% and 2.1 nM.
`c1ccc(-c2cncnc2)c(NCc2c[nH]cn2)c1` [Example 10, N-((1H-imidazol-4-yl)methyl)-2-(pyrimidin-5-yl)aniline]: the maximum response (Emax) at 10 µM amounted to 103% and a half-maximal effect (EC50) was put at 3.8 nM.
On the same counts, the results for `c1ccc(-c2cncs2)c(NCc2c[nH]cn2)c1` [Example 11, N-((1H-imidazol-4-yl)methyl)-2-(thiazol-5-yl)aniline] are 104% and 1.8 nM.
On the same counts, the results for `c1csc(-c2cscc2NCc2c[nH]cn2)n1` [Example 12, N-((1H-imidazol-4-yl)methyl)-4-(thiazol-2-yl)thiophen-3-amine] are 101% and 0.4 nM.
On the same counts, the results for `c1cnc(-c2cscc2NCc2c[nH]cn2)cn1` [Example 13, N-((1H-imidazol-4-yl)methyl)-4-(pyrazin-2-yl)thiophen-3-amine] are 101% and 1.1 nM.
For the molecule `c1nc(CNc2cscc2-c2cscn2)c[nH]1` [Example 14, N-((1H-imidazol-4-yl)methyl)-4-(thiazol-4-yl)thiophen-3-amine], the Emax at 10 µM came to 88% and a half-maximal effect (EC50) was put at 2.2 nM.
The corresponding values for `c1ccc(-c2cscn2)c(NCc2c[nH]cn2)c1` [Example 15, N-((1H-imidazol-4-yl)methyl)-2-(thiazol-4-yl)aniline] are 98% and 0.1 nM.
The molecule `Cc1cccnc1-c1cscc1NCc1c[nH]cn1` [Example 16, N-((1H-imidazol-4-yl)methyl)-4-(3-methylpyridin-2-yl)thiophen-3-amine] gave an Emax at 10 µM of 88% and an EC50 of 9.6 nM.
The corresponding values for `COc1cccnc1-c1cscc1NCc1c[nH]cn1` [Example 17, N-((1H-imidazol-4-yl)methyl)-4-(3-methoxypyridin-2-yl)thiophen-3-amine] are 90% and 2 nM.
On the same counts, the results for `Cc1ncsc1-c1cscc1NCc1c[nH]cn1` [Example 18, N-((1H-imidazol-4-yl)methyl)-4-(4-methylthiazol-5-yl)thiophen-3-amine] are 88% and 5.3 nM.
The corresponding values for `Cc1ncncc1-c1ccccc1NCc1c[nH]cn1` [Example 19, N-((1H-imidazol-4-yl)methyl)-2-(4-methylpyrimidin-5-yl)aniline] are 102% and 3.1 nM.
Turning to `Cc1ccc(-c2cncnc2C)c(NCc2c[nH]cn2)c1` [Example 20, N-((1H-imidazol-4-yl)methyl)-5-methyl-2-(4-methylpyrimidin-5-yl)aniline], the Emax at 10 µM is 91% and the EC50 stood at 2.4 nM.
On the same counts, the results for `COc1ccnc(-c2cscc2NCc2c[nH]cn2)c1` [Example 21, N-((1H-imidazol-4-yl)methyl)-4-(4-methoxypyridin-2-yl)thiophen-3-amine] are 92% and 0.2 nM.
On the same counts, the results for `COc1cccc(-c2cscc2NCc2c[nH]cn2)n1` [Example 22, N-((1H-imidazol-4-yl)methyl)-4-(6-methoxypyridin-2-yl)thiophen-3-amine] are 88% and 1.2 nM.
The corresponding values for `COc1ncncc1-c1cscc1NCc1c[nH]cn1` [Example 23, N-((1H-imidazol-4-yl)methyl)-4-(4-methoxypyrimidin-5-yl)thiophen-3-amine] are 95% and 0.1 nM.
The molecule `Cc1scnc1-c1cscc1NCc1c[nH]cn1` [Example 24, N-((1H-imidazol-4-yl)methyl)-4-(5-methylthiazol-4-yl)thiophen-3-amine] had an Emax at 10 µM of 101% and a 50% effective concentration (EC50) of 0.2 nM.
On the same counts, the results for `Cc1ncncc1-c1ccc(F)cc1NCc1c[nH]cn1` [Example 25, N-((1H-imidazol-4-yl)methyl)-5-fluoro-2-(4-methylpyrimidin-5-yl)aniline] are 100% and 1.7 nM.
The corresponding values for `c1ccc(-c2cnccn2)c(NCc2c[nH]cn2)c1` [Example 26, N-((1H-imidazol-4-yl)methyl)-2-(pyrazin-2-yl)aniline] are 105% and 1.2 nM.
On the same counts, the results for `c1ccc(-c2ccccc2NCc2c[nH]cn2)nc1` [Example 27, N-((1H-imidazol-4-yl)methyl)-2-(pyridin-2-yl)aniline] are 100% and 2.3 nM.
In turn, `COc1cccnc1-c1ccccc1NCc1c[nH]cn1` [Example 28, N-((1H-imidazol-4-yl)methyl)-2-(3-methoxypyridin-2-yl)aniline] displayed a maximal response (Emax) at 10 µM of 96% and an EC50 of 4.9 nM.
